Data taken from patent US20160022636A1, “PHYSIOLOGICAL LIGANDS FOR GPR139” (JANSSEN PHARMACEUTICA NV, priority 2013, published 2016).
Where “and” joins values, the source holds several entries; their conditions need not be identical. Identical values can stand only once. Like-named read-outs stand apart in the source and are kept apart here.

Tests used:
[1] = target: T1, mouse GPR139 (Mus musculus, UniProt Q80UC8); assay: GTPγS binding dose response, COS7 membranes co-transfected with mouse GPR139 and GO2Q; type: biochemical; conditions: mouse GPR139, FIG. 2 C and D
T1 construct: expressed in transfected cells; host or cells: COS7
T1 sequence (Q80UC8 1-345): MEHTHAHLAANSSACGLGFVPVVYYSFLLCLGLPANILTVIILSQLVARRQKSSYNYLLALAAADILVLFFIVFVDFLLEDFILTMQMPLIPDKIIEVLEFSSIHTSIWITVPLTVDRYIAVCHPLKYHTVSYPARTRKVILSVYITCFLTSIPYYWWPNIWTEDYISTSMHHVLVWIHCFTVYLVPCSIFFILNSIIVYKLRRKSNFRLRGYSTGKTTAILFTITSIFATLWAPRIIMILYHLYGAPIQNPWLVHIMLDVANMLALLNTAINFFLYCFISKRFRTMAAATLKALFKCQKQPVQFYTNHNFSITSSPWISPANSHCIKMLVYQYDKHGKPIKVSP
Description: (§1) FIG. 2: Tryptophan, phenylalanine, and their derivatives activate GPR139. Human (A and B) or mouse (C and D) GPR139 were co-transfected with chimeric G-protein GO2Q into COS7 cells. Cell membranes from transfected cells were used in GTPγS binding studies using various ligands at different concentrations to stimulate GPR139. Membranes from COS7 cells transfected by GO2Q were used as the controls (E and F).

[2] = target: T2, GPR139 (Homo sapiens, UniProt Q6DWJ6); assay: GTPγS binding dose response, COS7 membranes co-transfected with human GPR139 and GO2Q; type: biochemical; design: expressed in transfected cells; host or cells: COS7; conditions: human GPR139, FIG. 2 A and B
T2 sequence (Q6DWJ6 1-353): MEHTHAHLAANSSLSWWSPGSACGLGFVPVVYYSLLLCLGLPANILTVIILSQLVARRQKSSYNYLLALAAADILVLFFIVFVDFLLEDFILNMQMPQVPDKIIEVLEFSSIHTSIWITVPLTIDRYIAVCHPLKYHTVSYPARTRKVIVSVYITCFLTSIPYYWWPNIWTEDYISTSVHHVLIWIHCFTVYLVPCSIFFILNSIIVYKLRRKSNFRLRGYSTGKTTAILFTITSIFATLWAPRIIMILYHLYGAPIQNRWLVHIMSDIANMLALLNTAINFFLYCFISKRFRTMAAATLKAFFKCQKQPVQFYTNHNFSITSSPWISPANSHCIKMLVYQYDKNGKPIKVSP
Description: as §1

[3] = target: T2, GPR139; assay: calcium mobilization assay (FLIPR), GPR139 transiently expressed in HEK293 cells; type: cell-based; design: expressed in transfected cells; host or cells: HEK293; conditions: similar to GTPγS binding studies
Description: For these experiments human GPR139 was transiently expressed in HEK293 cells and calcium mobilization was stimulated using L-Trp, L-Phe or their derivatives.

[4] = target: T2, GPR139; assay: GTPγS binding assay, membranes from COS7 cells co-expressing GPR139 and GO2Q, single concentration screen; type: biochemical; design: expressed in transfected cells; host or cells: COS7; conditions: for Activation levels of GPR139 (GTPγS binding signal), GPR139-GO2Q: 1 mM final concentration, single wells of triplicate, COS7 membranes co-expressing GPR139 and GO2Q; for activation of GPR139 in GTPγS binding assay (in words): 1 mM
Method: (§2) In order identify the ligands for GPR139 two improvements in the detection assay were made to allow for the ligands to be detected. First, we chose to use a GTPγS binding assay instead of using live cultured cells. The GTPγS binding assay is a cell free system that uses the cell membrane of the cell(s) of interest rather than the live cell(s). One advantage of this assay is that potential ligands present in the cell culture media are washed away when the cell membrane is prepared. This reduces the basal level of signal and increase the chance of detecting receptor ligands when assessing compounds that activate the receptor. Second, a GO2Q chimeric G-protein was created to be co-expressed with GPR139 in order to increase the signal-to-noise ratio in the GTPγS binding assay. Historically, the Gi, Go coupled GPCRs offer much greater signal-to-noise ratio in GTPγS binding studies. For Gs and Gq coupled GPCRs, although ligand-stimulated specific signals can be detected in a GTPγS binding assay, the signal-to-noise ratios are often very small. To address this a chimeric GO2-Gq chimeric G-protein, GO2Q, with the N-terminus from Go2 protein and the C-terminus from Gq protein.
(§3) To test for compounds that activate GPR139, different amino acids and their derivatives (Table 2) were tested as ligands in the GTPγS binding assay using cell membranes from COS7 cells co-expressing GPR139 and GO2Q. Cell membrane from COS7 cells expressing GO2Q alone or co-expressing other GPCRs were also tested in GTPγS binding assay in parallel as controls. Each compound was tested in triplicate.

[5] = system: GO2Q alone; assay: GTPγS binding assay, control membranes from COS7 cells expressing GO2Q alone (Ct-GO2Q); type: biochemical
Description: as §1, with “Human” for “FIG. 2: Tryptophan, phenylalanine, and their derivatives activate GPR139. Human”
as §2, §3

[6] = 1 mM final concentration, single wells of triplicate, COS7 membranes with GO2Q alone (control panel)

SMILES	Activation levels of GPR139 (GTPγS binding signal), GPR139-GO2Q [4]	Activation levels (GTPγS binding signal), Ct-GO2Q [5, 6]	other results
N[C@H](Cc1ccccc1)C(=O)O [D-Phe, D-phenylalanine]	–	–	dose response activation of GPR139 (in words) [1]: specifically activate GPR139 in a dose-responsive manner; dose response activation of GPR139 (in words) [2]: specifically activate GPR139 in a dose-responsive manner
Cn1cc(C[C@@H](N)C(=O)O)c2ccccc21 [1-methyl-D-Trp]	–	–	dose response activation of GPR139 (in words) [1]: specifically activate GPR139 in a dose-responsive manner; potency in calcium mobilization compared with L-Trp and L-Phe (in words) [3]: higher potencies; dose response activation of GPR139 (in words) [2]: specifically activate GPR139 in a dose-responsive manner
N[C@@H](CSSC[C@H](N)C(=O)O)C(=O)O [Cystine]	2501 and 2652 and 2258	2242 and 2149 and 2229	–
NC(=O)CC[C@H](N)C(=O)O [Gln]	2583 and 2525 and 2766	2181 and 2327 and 2336	–
CNCC(O)c1ccc(O)c(O)c1 (centres unmarked) [Adrenaline]	2721 and 2624 and 2670	2240 and 2117 and 2045	–
NCC(=O)O [Gly]	2560 and 2505 and 2414	1936 and 2133 and 2289	–
N=C(N)NCCC[C@H](N)C(=O)O [Arg]	2806 and 2783 and 2528	–	Activation levels (GTPγS binding signal), Ct-GO2Q [5]: 2171 and 2131 and 2255
N[C@@H](Cc1ccc(O)cc1)C(=O)O [Tyr]	2752 and 2715 and 2921	2192 and 2191 and 2186	–
N[C@H](Cc1c[nH]c2ccccc12)C(=O)O [D-Trp, D-tryptophan]	–	–	dose response activation of GPR139 (in words) [1]: specifically activate GPR139 in a dose-responsive manner; dose response activation of GPR139 (in words) [2]: specifically activate GPR139 in a dose-responsive manner
NCC(O)c1ccc(O)cc1 (centres unmarked) [Octopamine]	2554 and 2675 and 2831	2087 and 2140 and 2142	–
NCCc1c[nH]c2ccccc12 [Tryptamine, tryptamine]	6757 and 7686 and 7742	2025 and 2048 and 2088	dose response activation of GPR139 (in words) [1]: specifically activate GPR139 in a dose-responsive manner; activation of GPR139 in GTPγS binding assay (in words) [4]: activated GPR139; dose response activation of GPR139 (in words) [2]: specifically activate GPR139 in a dose-responsive manner
CC(C)[C@H](N)C(=O)O [Val]	2632 and 2689 and 2533	2072 and 2083 and 1977	–
N[C@@H](Cc1c[nH]cn1)C(=O)O [His]	2640 and 2499	2308 and 2259 and 2197	–
NCCc1c[nH]c2ccc(O)cc12 [Seretonin]	2839 and 2852 and 2920	2356 and 2154 and 2332	–
NC(=O)C[C@H](N)C(=O)O [Asn]	2806 and 2483 and 2547	2195 and 2142 and 2133	–
C[C@@H](O)[C@H](N)C(=O)O [Thr]	2547 and 2507 and 2558	2210 and 2213 and 2008	–
NCCc1ccc(O)c(O)c1 [DA]	2688 and 2825 and 2708	2250 and 2213 and 2319	–
CC(N)Cc1ccccc1 (centres unmarked) [Amphetamine, amphetamine]	7242 and 6744 and 7263	2331 and 2132 and 2001	dose response activation of GPR139 (in words) [1]: specifically activate GPR139 in a dose-responsive manner; activation of GPR139 in GTPγS binding assay (in words) [4]: activated GPR139; dose response activation of GPR139 (in words) [2]: specifically activate GPR139 in a dose-responsive manner
NCCc1ccccc1 [β-phenylethylamine]	–	–	dose response activation of GPR139 (in words) [1]: specifically activate GPR139 in a dose-responsive manner; activation of GPR139 in GTPγS binding assay (in words) [4]: activated GPR139; Activation levels of GPR139 (GTPγS binding signal), GPR139-GO2Q ([4]; listed as b-phenylethylamine): 6705 and 7099 and 6634; Activation levels (GTPγS binding signal), Ct-GO2Q ([5]; 1 mM final concentration, single wells of triplicate, COS7 membranes with GO2Q alone (control panel), listed as b-phenylethylamine): 2334 and 2065 and 2024; dose response activation of GPR139 (in words) [2]: specifically activate GPR139 in a dose-responsive manner
N[C@@H](CCC(=O)O)C(=O)O [Glu]	2847 and 2837 and 2841	2242 and 2310 and 2311	–
Cn1cc(C[C@H](N)C(=O)O)c2ccccc21 [1-methyl-L-Trp]	–	–	dose response activation of GPR139 (in words) [1]: specifically activate GPR139 in a dose-responsive manner; potency in calcium mobilization compared with L-Trp and L-Phe (in words) [3]: higher potencies; dose response activation of GPR139 (in words) [2]: specifically activate GPR139 in a dose-responsive manner
CC[C@H](C)[C@H](N)C(=O)O [Ile]	2760 and 2542 and 2903	2266 and 2222 and 2253	–
O=C(O)[C@@H]1C[C@@H](O)CN1 [HO-Pro]	2825 and 2797 and 3109	2166 and 2152 and 2189	–
N[C@@H](CS)C(=O)O [Cys]	2168 and 2458 and 2336	1928 and 2132 and 2114	–
